According to patent US10017681B2, “Corrosion inhibitors” (RHODIA OPERATIONS, priority 2014, dated 2018):
Where two headings read alike, the source gives them in different places. Marks after values point to notes of the source that are not given here.

Experiments:
[1] = Dynamic surface tension (maximum bubble pressure method); type: physicochemical; conditions: 1000 ppm (as active) in 5% NaCl, 25° C., surface age 30 seconds
Experimental: Dynamic Surface Tension measurements were therefore carried out using a Messtechnik SITA T60 tensiometer for mixtures of the alkyl phosphonic acids with selected surfactants (anionic and amphoteric) in 5% NaCl.
These tests were carried out using the maximum bubble pressure method (see ‘Exploiting Surfactant Synergies in the Development of Foamers for Gas Well Deliqufication’, K Hatchman, C Jones, B Downward, G Collins, A Fellows, Proceedings of Chemistry In The Oil Industry XII, Royal Society of Chemistry, 2011).
The surface tensions were measured for 1000 ppm (as active) at a surface age of 30 seconds (equilibrium conditions) and ambient temperature (25° C.).

[2] = LPR (Linear Polarisation Resistance) bubble test, Example 2; conditions: 90/10 5% NaCl/Isopar M, 60° C., CO2
Experimental: (§1) Corrosion inhibition properties were screened using the LPR (Linear Polarisation Resistance) bubble test method and the film persistence of the surfactants was evaluated using a Rotating Cylinder Electrode (RCE). The conditions were the same in both tests.
(§2) A 90/10 brine (5% w/w NaCl) and Isopar M (C9-15 iso-paraffins) mixture at 60° C. was saturated with CO2. The electrodes were immersed in the brine and left for several hours to establish the base line corrosion rate before injecting the surfactant.
The corrosion rate at 15 hours was used to benchmark the efficacy of the formulations containing octyl phosphonic acid against a commercial corrosion inhibitor. Synergistic properties of the surfactant mixtures were identified by comparing them against the corrosion rates of the individual surfactants.
The surfactant ratios for the LPR/RCE measurements were 80/20 and 50/50 Cl/octyl phosphonic acid and compared against the individual surfactants.

[3] = RCE film persistence under high shear (4000 rpm), Example 2; conditions: high shear rates (4000 rpm)
Experimental: as §1, §2
A shear rate of 4000 rpm was used to simulate very high shear conditions in order to determine the film persistence properties of the surfactants.
The persistence of the surfactant corrosion inhibitor film was also assessed under high shear rates (4000 rpm).

[4] = Foam tendency (dynamic foam test, ASTM G170-06); type: physicochemical; conditions: 1000 ppm active; 50/50 v/v Isopar M and 5% NaCl, 25° C.
Experimental: Foam tendencies were investigated using the methods described in ASTM G170-06 (2012) ‘Standard Guide for Evaluating and Qualifying Oilfield and Refinery Corrosion Inhibitors in the Laboratory’.
A graduated dynamic foam test apparatus (1000 ml measuring cylinder) fitted with a No. 1 porosity gas sparge tube was used for the test. 1000 ppm of corrosion inhibitor was added to a 50/50 v/v brine (5% NaCl solution) and Isopar M mixture (200 ml) at ambient temperature (25° C.). The mixture was left for 10 minutes before immersing the sparge tube in the brine layer. Nitrogen gas (flow rate: 0.5 litre/min) was injected into the solution and the volume of foam produced was measured over a set period of time (10 minutes).
If the foam reached the 1000 ml mark (800 ml foam volume) before the 10 minutes had elapsed then the time taken for the foam to reach the 1000 ml mark (800 ml of foam) was recorded. The volume of foam produced after the allotted time was also recorded.
The foam persistence was determined by measuring the foam volume after 10 minutes.

[5] = Emulsion tendency (ASTM G-170); type: physicochemical; conditions: for Brine (ml) @ T = 30 mins / Isopar M (ml) @ T = 30 mins / Pad (ml) @ T = 30 mins / Emulsion Layer (%): 1000 ppm active, 50/50 v/v Isopar M and 5% NaCl, 25° C.; for Emulsion Layer (%): after 30 minutes
Experimental: The emulsification behaviours of the alkyl phosphonic acids were investigated using the standard test procedure, ASTM G-170. It will be appreciated that, in general, corrosion inhibition formulations which have a low tendency to form emulsions with hydrocarbons are preferred.
1000 ppm active corrosion inhibitor formulation was added to a 250 ml measuring cylinder containing 100 ml 50/50 v/v 5% NaCl and Isopar M respectively. The cylinder was sealed and shaken 100 times.
The mixture was allowed to rest and the emulsion and brine layer volumes were recorded. The brine, Isopar M and emulsion layers were measured at 5, 10 and 30 minutes respectively.

[6] = Bubble test (LPR), Example 1; conditions: on its own
Experimental: A bubble test was carried out as follows: • Clean corrosion cells were fitted with a stirring bar, auxiliary electrode, reference electrode, gas sparge tube, and glass periscope. • Each cell was charged with 999 g of the desired corrosion fluid. In this instance a 5% NaCl brine and Isopar M oil phase was used in a 9:1 ratio. • The cells were placed in a water bath set at 60° C. and set to stir at approximately 300 rpm. • Each cell was connected to a constant sparge of CO2 approx. 60 cm^3/min and then left for 1 hour to reach equilibrium. • C1018 mild steel coupons were washed with xylene and acetone to remove any vapour phase corrosion inhibitor and allowed to dry. • After the cells reached equilibrium the mild steel coupons were connected to the working electrodes and inserted into each cell using the glass periscopes to avoid getting the electrodes oil wet. • The LPR run was started and baseline corrosion data was collected for approximately 2.5 hours. • During this time 2% (w/w product) stock solutions of samples 1&2 were made up in deionised water.
The skilled reader will appreciate that the bubble test can only be used to evaluate if a product acts as a corrosion inhibitor and to rank corrosion inhibitors in order of effectiveness. […]

[7] = 20 ppm active; 1500 rpm; 60° C., CO2
Experimental: An RCE film persistency test was carried out as follows: • A clean jacketed RCE corrosion cell was fitted with an auxiliary electrode, reference electrode, and gas sparge tube. • The cell was charged with 899.1 g of 5% NaCl brine. • The temperature of the circulator connected to the jacketed cell was set to 60° C. • A constant CO2 sparge of approx. 200 cm^3/min was passed through the brine in the RCE cell which was then left for 1 hour to reach equilibrium. • A C1018 mild steel coupon was washed in xylene and acetone to remove any vapour phase corrosion inhibitor and allowed to dry. • After the RCE cell reached equilibrium the mild steel coupon was connected to the RCE shaft and inserted into the RCE cell. • Isopar M 99.9 g was then carefully transferred into the cell so that it floated on top of the brine. (This is done at this stage to prevent the working electrode from becoming oil wet as a periscope is unavailable) • The rotator was turned on and set to 1500 rpm. • Baseline corrosion data was collected for approximately 2.5 hours. • During this time 2% (w/w active) stock solutions of samples 2 or 3 were made up in methanol.

[8] = Rotating Cylinder Electrode (RCE) film persistency test (4000 rpm); conditions: 20 ppm active, 60° C.
Experimental: An RCE film persistency test was carried out as follows: • A clean jacketed RCE corrosion cell was fitted with an, auxiliary electrode, reference electrode, and gas sparge tube. • The cell was charged with 899.1 g of 5% NaCl brine. • The temperature of the circulator connected to the jacketed cell was set to 60° C. • A constant CO2 sparge of approx. 200 cm^3/min was passed through the brine in the RCE cell which was then left for 1 hour to reach equilibrium. • A C1018 mild steel coupon was washed in xylene and acetone to remove any vapour phase corrosion inhibitor and allowed to dry. • After the RCE cell reached equilibrium the mild steel coupon was connected to the RCE shaft and inserted into the RCE cell. • Isopar M 99.9 g was then carefully transferred into the cell so that it floated on top of the brine. (This is done at this stage to prevent the working electrode from becoming oil wet as a periscope is unavailable) • The rotator was turned on and set to 4000 rpm. (NB. This is the fastest speed achievable using current available equipment.) • Baseline corrosion data was collected for approximately 2.5 hours. • During this time a 2% (w/w active) stock solution of Rhodafac ASI 80 was made up in methanol. • After the baseline corrosion data was collected the stock solution was injected into the RCE cell at a concentration of 20 ppm (w/w active). • The corrosion rate in the cell was recorded for at least a further 12.5 hours.

[9] = Solubility of samples when making stock solutions; type: physicochemical; conditions: 2% (w/w active) stock solutions in methanol

| Compound | Surface tension at 30 second (mN/m) [1] | Average corrosion rate [bubble test] (mils/y) ([2]; 4 ppm) | Average corrosion rate [weight loss] (mils/y) ([2]; 4 ppm) | Effciency at T = 15 (%) ([2]; 4 ppm) | Average corrosion rate [bubble test] (mils/y) ([2]; 20 ppm) | Average corrosion rate [weight loss] (mils/y) ([2]; 20 ppm) | Effciency at T = 15 (%) ([2]; 20 ppm) | Average corrosion rate [bubble test] (mils/y) ([3]; 4 ppm) | Average corrosion rate [weight loss] (mils/y) ([3]; 4 ppm) | Effciency at T = 15 (%) ([3]; 4 ppm) | Average corrosion rate [bubble test] (mils/y) ([3]; 20 ppm) | Average corrosion rate [weight loss] (mils/y) ([3]; 20 ppm) | Effciency at T = 15 (%) ([3]; 20 ppm) | Foam Volume after 10 minutes [4] [mL] | Time to 1000 ml (secs) [4] | Brine (ml) @ T = 30 mins [5] [mL] | Isopar M (ml) @ T = 30 mins [5] | Pad (ml) @ T = 30 mins [5] [mL] | Emulsion Layer (%) [5] [%] | further results |
| --- | --- | --- | --- | --- | --- | --- | --- | --- | --- | --- | --- | --- | --- | --- | --- | --- | --- | --- | --- | --- |
| CCCCCCCCCCCCP(=O)(O)O [Lauryl Phosphonic Acid] | 38.8* mN/m | – | – | – | – | – | – | – | – | – | – | – | – | – | – | – | – | – | – | – |
| CCCCCCCCCCCCP(=O)(O)O [Lauryl Phosphonic Acid (100%), Lauryl Phosphonic Acid] | – | 174.2 | 146.8 | 27.6 | 33.4 | 58.5 | 98.5% | 174.2 | 146.8 | 27.6 | 33.4 | 58.5 | 98.5 | 0 | No foam | 41 | 12** ml | 0 | 0 | observation on the hydrocarbon layer ([5]; emulsification test, footnote): **Lauryl phosphonic acid appears to gel the hydrocarbon, effectively reducing the phase separation rate of the different layers |
| CCCCCCCCP(=O)(O)O [Octyl Phosphonic Acid (100%)—OPA, Octyl Phosphonic Acid] | – | – | – | – | – | – | – | – | – | – | – | – | – | – | – | 50 | 50 mL | 0 | 0 | – |
| ethylhexyl acid phosphate | – | – | – | – | – | – | – | – | – | – | – | – | – | – | – | – | – | – | – | corrosion inhibition properties [6]: no corrosion inhibition properties |
| CCCCCCCCP(=O)(O)O [Octyl Phosphonic Acid (80%), Octyl Phosphonic Acid] | – | 267.4 | 244.3 | 0 | 49.1 | 48.1 | greater than 95% | 267.4 | 244.3 | 0 | 49.1 | 48.1 | 96.3 | 0 | No foam | – | – | – | – | Average corrosion rate (RCE test) [7]: 61 mils/y; Average corrosion rate (Weight Loss) [7]: 56 mils/y; Efficiency at T = 15 [7]: 96%; Effciency at T = 15 (%) ([2]; 20 ppm, listed as OPA (80%)): 96.3%; Average corrosion rate (RCE test) ([8]; CO2): 89 mils/y; Average corrosion rate (Weight Loss) ([8]; CO2): 56 mils/y; Effciency at T = 15 ([8]; CO2): 93%; Effciency at T = 15 ([8]; CO2, listed as octylphosphonic acid): > 90%; solubility in methanol [9]: fully soluble in methanol |
| CCCCCCCCP(=O)(O)O [Octyl Phosphonic Acid] | 58.5* mN/m | – | – | – | – | – | – | – | – | – | – | – | – | – | – | – | – | – | – | – |
